The values that follow come from patent US7834011B2, “Heterocyclylalkyl derivatives as novel inhibitors of histone deacetylase” (Janssen Pharmaceutica N.V., priority 2006, dated 2010).

≈ marks a conversion by molar mass, not a printed value. Where two headings read alike, the source gives them in different places.

Series [1] concerns A2780 ovarian carcinoma cells. Kind of series: Antiproliferative activity on A2780 cells (MTT). It is filed as cell-based. Conditions: Homo sapiens, 96 h, four days of incubation, read-out: Cellular activity pIC50 C.2 (converted). On the procedure:
Cellular activity of the compounds of formula (I) was determined on A2780 tumour cells using a colorimetric assay for cell toxicity or survival (Mosmann Tim, Journal of Immunological Methods 65: 55-63, 1983)(see example C.2).
All compounds tested were dissolved in DMSO and further dilutions were made in culture medium. Final DMSO concentrations never exceeded 0.1% (v/v) in cell proliferation assays. Controls contained A2780 cells and DMSO without compound and blanks contained DMSO but no cells. MTT was dissolved at 5 mg/ml in PBS. A glycine buffer comprised of 0.1 M glycine and 0.1 M NaCl buffered to pH 10.5 with NaOH (1 N) was prepared (all reagents were from Merck).
The human A2780 ovarian carcinoma cells (a kind gift from Dr. T. C. Hamilton [Fox Chase Cancer Centre, Pennsylvania, USA]) were cultured in RPMI 1640 medium supplemented with 2 mM L-glutamine, 50 μg/ml gentamicin and 10% fetal calf serum. Cells were routinely kept as monolayer cultures at 37° C. in a humidified 5% CO2 atmosphere. Cells were passaged once a week using a trypsin/EDTA solution at a split ratio of 1:40. All media and supplements were obtained from Life Technologies. Cells were free of mycoplasma contamination as determined using the Gen-Probe Mycoplasma Tissue Culture kit (supplier: BioMérieux).
Cells were seeded in NUNC™ 96-well culture plates (Supplier: Life Technologies) and allowed to adhere to the plastic overnight. Densities used for plating were 1500 cells per well in a total volume of 200 μl medium. After cell adhesion to the plates, medium was changed and drugs and/or solvents were added to a final volume of 200 μl. Following four days of incubation, medium was replaced by 200 μl fresh medium and cell density and viability was assessed using an MTT-based assay. To each well, 25 μl MTT solution was added and the cells were further incubated for 2 hours at 37° C. The medium was then carefully aspirated and the blue MTT-formazan product was solubilized by addition of 25 μl glycine buffer followed by 100 μl of DMSO. […] Within an experiment, the results for each experimental condition are the mean of 3 replicate wells. For initial screening purposes, compounds were tested at a single fixed concentration of 10^−6 M. For active compounds, the experiments were repeated to establish full concentration-response curves. For each experiment, controls (containing no drug) and a blank incubation (containing no cells or drugs) were run in parallel. The blank value was subtracted from all control and sample values. For each sample, the mean value for cell growth (in absorbance units) was expressed as a percentage of the mean value for cell growth of the control. […] Herein the effects of test compounds are expressed as pIC50 (the negative log value of the IC50-value)(see Table F-2).

Test in series [2]: not given
This is another data set of the same source.

Series [3] deals with histone deacetylase (HeLa nuclear extracts). As to the kind of experiment: In vitro assay for inhibition of histone deacetylase with fluorescent-labelled substrate (Fluor de Lys). It is filed as biochemical. An excerpt: The in vitro assay for inhibition of histone deacetylase (see example C.1) measures the inhibition of HDAC enzymatic activity obtained with the compounds of formula (I).
The HDAC Fluorescent Activity Assay/Drug Discovery Kit of Biomol (cat. No: AK-500-0001) was used. The HDAC Fluorescent Activity Assay is based on the Fluor de Lys (Fluorogenic Histone deAcetylase Lysyl) substrate and developer combination. The Fluor de Lys substrate, comprises an acetylated lysine side chain. Deacetylation of the substrate sensitizes the substrate so that, in the second step, treatment with the Fluor de Lys developer produces a fluorophore.
HeLa nuclear extracts (supplier: Biomol) were incubated at 60 μg/ml with 75 μM of substrate. The Fluor de Lys substrate was added in a buffer containing 25 mM Tris, 137 mM NaCl, 2.7 mM KCl and 1 mM MgCl2.6H2O at pH 7.4. After 30 min, 1 volume of the developer was added. The fluorophore was excited with 355 nm light and the emitted light (450 nm) was be detected on a fluorometric plate reader.
For each experiment, controls (containing HeLa nuclear extract and buffer), a blank incubation (containing buffer but no HeLa nuclear extract) and samples (containing compound dissolved in DMSO and further diluted in buffer and HeLa nuclear extract) were run in parallel. In first instance, compounds were tested at a concentration of 10^−5M. […] All sample were tested 4 times. In each test the blank value was subtracted from both the control and the sample values. The control sample represented 100% of substrate deactylation. For each sample the fluorescence was expressed as a percentage of the mean value of the controls. […] Herein the effects of test compounds are expressed as pIC50 (the negative log value of the IC50-value) (see Table F-2).

Series [4] is described as follows: Solubility at pH 2.3 (chemiluminescent nitrogen detector). It is filed as physicochemical. To be noted: pH 2.3, aqueous buffer; read-out: Solubility C.3.c. pH = 2.3. An excerpt: In a third method the solubility of a compound at different pH's can be measured with the use of a Chemiluminescent Nitrogen Detector (see example C.3.c).
The solubility of a compound, at pH 2.3, can also be measured with the use of a chemiluminescent nitrogen detector (see Table F-2).

The subject of the next series is p21 promoter. Kind of series: p21 induction in vivo method C.6.c (reporter tumour fluorescence in nude mice). To be noted: 20-40 mpk daily during 6 days, orally or intraveinally, ranked inactive, weaker, identical or better than R306465. On the procedure: The last method is an in vivo method wherein mice are used for screening the pharmaceutical activity of a compound. The above described stably transformed tumour cells can be administered to mice in an amount sufficient to effect production of a tumour. After the tumour cells had sufficient time to form a tumour, a potentially active compound can be administered to the animals and the effect of said compound on the tumour cells is evaluated by measuring the expression of the reporter gene. Incubation with pharmaceutical active compounds will result in an increase of reporter gene expression compared to the control levels (see example C.6.c.)
A selected clone was injected subcutaneous (10^7 cells/200 μl) into the flank of nude mice and a calliper measurable tumour was obtained after 12 days. From day 12 on, animals were dosed, orally or intraveinally, daily during 6 days with solvent and 20-40 mpk compound (4-10 animals each). Tumours were evaluated for fluorescence by the in-house developed Automated Whole Body Imaging System (Fluorescent stereomicroscope type Olympus® SZX12 equipped with a GFP filter and coupled to a CCD camera type JAI® CV-M90 controlled by a software package based on the IMAQ Vision Software from National Instruments®). As reference, compound R306465 (WO03/76422) was used.

A short description of series [5]: Kinetic solubility in aqueous media C.3.a (nephelometer). The format is physicochemical. Conditions: aqueous buffer, kinetic from dmso stock; phosphate citrate buffer pH 7.4, turbidity; read-out: Kinetic solubility score (C.3.a). On the procedure:
The solubility of a compound measures the ability of a compound to stay in solution. In a first method the ability of a compound to stay in aqueous solution upon dilution (see example C.3.a) is measured. DMSO-stock solutions are diluted with a single aqueous buffer solvent in 3 consecutive steps. For every dilution turbidity is measured with a nephelometer.
In the first dilution step, 10 μl of a concentrated stock-solution of the active compound, solubilized in DMSO (5 mM), was added to 100 μl phosphate citrate buffer pH 7.4 and mixed. In the second dilution step, an aliquot (20 μl) of the first dilution step was further dispensed in 100 μl phosphate citrate buffer pH 7.4 and mixed. Finally, in the third dilution step, a sample (20 μl) of the second dilution step was further diluted in 100 μl phosphate citrate buffer pH 7.4 and mixed. All dilutions were performed in 96-well plates. Immediately after the last dilution step the turbidity of the three consecutive dilution steps were measured with a nephelometer. Dilution was done in triplicate for each compound to exclude occasional errors. Based on the turbidity measurements a ranking is performed into 3 classes. Compounds with high solubility obtained a score of 3 and for this compounds the first dilution is clear. Compounds with medium solubility obtained a score of 2. […]

A short description of series [6]: Metabolic stability with rat hepatocytes cell culture C.5.b. It is filed as in vitro ADME. Conditions: male, Sprague Dowley, rat hepatocyte cell cultures, read-out: in vitro half-life. An excerpt: Metabolism of drugs means that a lipid-soluble xenobiotic or endobiotic compound is enzymatically transformed into (a) polar, water-soluble, and excretable metabolite(s). The major organ for drug metabolism is the liver. […] However, some metabolites may have enhanced activity or toxic effects. Thus drug metabolism may include both “detoxication” and “toxication” processes. One of the major enzyme systems that determine the organism's capability of dealing with drugs and chemicals is represented by the cytochrome P450 monooxygenases, which are NADPH dependent enzymes. Metabolic stability of compounds can be determined in vitro with the use of subcellular human tissue (see example C.5.a.). Here metabolic stability of the compounds is expressed as % of drug metabolised after 15 minutes incubation of these compounds with microsomes. Quantitation of the compounds was determined by LC-MS analysis. Metabolic stability of compounds can also be determined by calculating the half live of compounds in rat hepatocyte cells (see example C.5.b.).
Rat hepatocytes were isolated from male Sprague Dowley rats. The compounds were dissolved to a 5 mM stock solution in 100% DMSO and incubated at a final concentration of 5 μM for 0, 15, 30, 60 and 120 min with rat hepatocyte cell cultures (0.5 million viable cells/0.5 ml) using 24-well plates.
Samples were prepared for LC-MS by addition of two volumes of DMSO. The samples were thoroughly shaken and subsequently centrifuged at 900 g for 10 min (room temperature). All experiments were performed in triplicate. Of the resulting supernatant 50 μl was analysed by LC-MS.
For LC-MS, elution of samples was performed on a Hypersil BDS C18 column (50×4.6 mm, 5 μm, Thermohypersil, UK). […]
Total injection volume of samples was 50 μL. […] The mass spectrometer was operated in positive ion mode in SIM adjusted to the mass of M+H with a scan width of 1 Da for quantification purposes. […] The metabolic stability of compounds in rat hepatocytes was expressed as in vitro half-lives. […]

For `COc1cc(N)c(Cl)cc1C(=O)NC1CCN(CCCOc2ccc(F)cc2)CC1OC` (centres unmarked) [Cisapride], the “% metabolism” value (human, 15 min, 5 μM) is listed as 45%.

For `Cn1nc(CNCC2CCN(c3ncc(C(=O)NO)cn3)CC2)c2ccccc21` [Compound 1], in series [1], the IC50 is 20 nM. In addition, the melting point – broadly, the temperature of the solid-liquid transition – in series [2] came out at 197 °C. Further, in series [3], the “Enzymatic activity pIC50 C.1” value was determined as 8.4. Moreover, the solubility (as a rule, how much of the substance goes into solution per volume) in series [4] is 2500 µg/mL (≈ 6.32 mM). In the series on p21 promoter, the “tumour fluorescence ranked against R306465” value is “better than R306465”.

For `Cn1nnc2ccc(CNCC3CCN(c4ncc(C(=O)NO)cn4)CC3)cc21` [Compound 2], the IC50 in series [1] was 251 nM. In series [2], this molecule registered a melting point of 206 °C. For the same molecule, the solubility (kinetic) (as a rule, the concentration staying in solution when a stock, usually in DMSO, is diluted into the medium) in series [5] is more than 455 µM. Also, the “Enzymatic activity pIC50 C.1” value in series [3] was determined as 8.1. Further, the solubility in series [4] amounted to 2100 µg/mL (≈ 5.3 mM).

Turning to `O=C(NO)c1cnc(N2CCC(CNCc3n[nH]c4ccccc34)CC2)nc1` [Compound 22], the half-life – broadly, how long it takes for the measured level to halve – at 5 μM in series [6] fell in the range of 30 to 55 min. In series [1], the IC50 is 79.4 nM. Moreover, the “Enzymatic activity pIC50 C.1” value in series [3] is 9.4. The solubility in series [4] was 2200 µg/mL (≈ 5.77 mM).

For the molecule `O=C(NO)c1cnc(N2CCN(S(=O)(=O)c3ccc4ccccc4c3)CC2)nc1` [Compound R306465, reference compound], the half-life at 5 μM in series [6] turned out to be 8 min.

As to `CCCO` [propanol], where the note is “15 min incubation with microsomes, compound 5 μM”, the “% metabolism” value is 25%.
